We go through eight compounds from paper PMC3472974, “The Bite of the Honeybee: 2-Heptanone Secreted from Honeybee Mandibles during a Bite Acts as a Local Anaesthetic in Insects and Mammals” (PLoS ONE, 2012).

Values after ≈ are worked out from the molar mass of the structure shown. Marks after values point to notes of the source that are not given here.

In data set [1] the test system is isolated rat sciatic nerve. The data set is described as follows: tissue or blood. Conditions: for IT50: unit not given in Table 3, seconds per Table 2. From the text:
The ex vivo studies used both male and female rats weighing between 230 and 250 g. Animals were sacrificed using light anaesthesia with CO2 and cervical dislocation. The sciatic nerve of the rat, consisting of 27,000 sciatic nerve fibres, was isolated in a three-chamber recording bath (Fig. 5b). The sciatic nerves were dissected from the spinal cord to the knee, immersed in oxygenated (O2, 100%) saline solution and cleaned. The composition of the saline was (in mmoles/L): 136 NaCl, 11 glucose, 4.7 KCl, 2.4 CaCl2, 1.1 MgCl2, 1 NaHCO3, 10 HEPES, pH = 7.2). All experiments were performed at a constant temperature, 26.0±1.0°C. […] The nerve was mounted in a three-chambered recording bath made of Plexiglas, which is described elsewhere, [30]. The recording bath consisted of the recording (R in Fig. 5b), perfusion (P) and stimulating (S) chambers, each with a volume of 12 mL. The nCAP (Fig. 5a) was generated by stimulating (1 Hz) the part of the nerve in the stimulating chamber and was recorded in the recording chamber every second using standard electrophysiological methods. The nCAP was monitored throughout the experiment as an indication of the vitality of the nerve fibres in the recording bath. […] Immediately after the nCAP was eliminated, the saline+compound was removed and the nerve was washed out. Then, recovery of the nCAP in normal stagnant saline was monitored for 24 h. It is worth noting that the recording bath is designed in such a way that the chambers with the saline and 2-H (the nerves and the recording electrodes) was shielded from the air by using the cover (c in Fig. 5b) to avoid evaporation of the volatile 2-H. The saline with 2-H was added through a small diameter opening on the cover.
For further data analysis, the amplitude of the nCAPs, estimated from baseline to peak (Fig. 5), were measured at a specific time (every 1.0 s, 1.0 min or 1.0 h) and were expressed as a percentage of the amplitude of the nCAP at t = 0 (which was considered to be 100%). In the neuropharmacological experiments, time t = 0 was considered the time before application of the compound under investigation. […] The data were fitted in the program GraphPad Prism 5.0 using a one-phase exponential decay equation for the IC50. Data were analyzed by one-way ANOVA and Bonferroni’s post hoc tests, when required. Significance was determined using Students t-test or ANOVA as appropriate (p<0.05).

In a further data set the test system is wax moth larvae (WML). Briefly: Locomotory pattern of tethered wax moth larvae after injection. In kind it is in vivo, Galleria mellonella. As to conditions: large WML. From the text:
To monitor the constant locomotory pattern of WML, the probe of a force-displacement transducer (FT-03C, Grass Instrument Company, USA), attached to a micromanipulator, was hooked onto the tail of the WML, while the head was carefully pinned to a wax substrate, [14]. The electrical signal generated by the rhythmic force produced during locomotion was amplified and fed to a computer through a data acquisition card interface (Keithley KPCI 3102, Keithley Instruments, Cleveland, OH, USA). Software designed using the facilities of Labview (Labview 5.1, National Instruments USA) permitted analysis of the recorded data.

The target of the next data set is T1, hNav1.6 channels (Homo sapiens, UniProt Q9UQD0).
T1 construct: expressed in transfected cells; host or cells: CHO-K1 (ATCC CCL-61)
The data set is described as follows: Patch-clamp (PatchXpress 7000A) on transfected CHO cells, hNav1.6. In kind it is cell-based. Conditions: CHO cells, n = 6, mean ± SEM, 2-H exposure limited to 3 min. From the text: To test whether 2-H can act by blocking VGNaCs, the PatchXpress 7000A was used. Mammalian CHO (Chinese hamster ovary) transfected with ion hNav1.2 and hNav1.6 channels cDNAs (SCN2A and SCN8A genes) were exposed to 2-H under both tonic and phasic conditions. The mammalian CHO-K1 epithelial embryonic cell line (ATCC number CCL-61) from Cricetulus griseus was obtained from ATCC, Manassas, VA. CHO-K1 cells were transfected with either hNav1.2 or hNav1.6 channel cDNA (SCN2A and SCN8A genes, respectively) and were exposed to 2-H under both tonic and phasic conditions.
The effects of 2-H were evaluated on hNav1.2 at 0.73, 1.46, 2.19, and 2.92 mg/mL and on hNav1.6 channels at 0.1, 0.36, 0.73, and 1.46 mg/mL, with each concentration tested in at least six cells (n = 6). Cells were exposed to each concentration of 2-H and measurements of the inward current were obtained within the first 3 min of exposure. […] Since the PatchXpress has open cell chambers where the testing occurs, there is no way to hermetically seal the experiment.
Based on this analysis, we estimated the IC50.
On the technique in general: Patch clamp records ionic current or voltage across a cell membrane.

The subject of the next data set is rat sciatic nerve. As to conditions: 80 mM, rat sciatic nerve in vitro; cited from earlier work.
[2] abbreviates: Table 3, 3.41 mg/mL, unit not given in Table 3, s.

T1 sequence (Q9UQD0 whole entry): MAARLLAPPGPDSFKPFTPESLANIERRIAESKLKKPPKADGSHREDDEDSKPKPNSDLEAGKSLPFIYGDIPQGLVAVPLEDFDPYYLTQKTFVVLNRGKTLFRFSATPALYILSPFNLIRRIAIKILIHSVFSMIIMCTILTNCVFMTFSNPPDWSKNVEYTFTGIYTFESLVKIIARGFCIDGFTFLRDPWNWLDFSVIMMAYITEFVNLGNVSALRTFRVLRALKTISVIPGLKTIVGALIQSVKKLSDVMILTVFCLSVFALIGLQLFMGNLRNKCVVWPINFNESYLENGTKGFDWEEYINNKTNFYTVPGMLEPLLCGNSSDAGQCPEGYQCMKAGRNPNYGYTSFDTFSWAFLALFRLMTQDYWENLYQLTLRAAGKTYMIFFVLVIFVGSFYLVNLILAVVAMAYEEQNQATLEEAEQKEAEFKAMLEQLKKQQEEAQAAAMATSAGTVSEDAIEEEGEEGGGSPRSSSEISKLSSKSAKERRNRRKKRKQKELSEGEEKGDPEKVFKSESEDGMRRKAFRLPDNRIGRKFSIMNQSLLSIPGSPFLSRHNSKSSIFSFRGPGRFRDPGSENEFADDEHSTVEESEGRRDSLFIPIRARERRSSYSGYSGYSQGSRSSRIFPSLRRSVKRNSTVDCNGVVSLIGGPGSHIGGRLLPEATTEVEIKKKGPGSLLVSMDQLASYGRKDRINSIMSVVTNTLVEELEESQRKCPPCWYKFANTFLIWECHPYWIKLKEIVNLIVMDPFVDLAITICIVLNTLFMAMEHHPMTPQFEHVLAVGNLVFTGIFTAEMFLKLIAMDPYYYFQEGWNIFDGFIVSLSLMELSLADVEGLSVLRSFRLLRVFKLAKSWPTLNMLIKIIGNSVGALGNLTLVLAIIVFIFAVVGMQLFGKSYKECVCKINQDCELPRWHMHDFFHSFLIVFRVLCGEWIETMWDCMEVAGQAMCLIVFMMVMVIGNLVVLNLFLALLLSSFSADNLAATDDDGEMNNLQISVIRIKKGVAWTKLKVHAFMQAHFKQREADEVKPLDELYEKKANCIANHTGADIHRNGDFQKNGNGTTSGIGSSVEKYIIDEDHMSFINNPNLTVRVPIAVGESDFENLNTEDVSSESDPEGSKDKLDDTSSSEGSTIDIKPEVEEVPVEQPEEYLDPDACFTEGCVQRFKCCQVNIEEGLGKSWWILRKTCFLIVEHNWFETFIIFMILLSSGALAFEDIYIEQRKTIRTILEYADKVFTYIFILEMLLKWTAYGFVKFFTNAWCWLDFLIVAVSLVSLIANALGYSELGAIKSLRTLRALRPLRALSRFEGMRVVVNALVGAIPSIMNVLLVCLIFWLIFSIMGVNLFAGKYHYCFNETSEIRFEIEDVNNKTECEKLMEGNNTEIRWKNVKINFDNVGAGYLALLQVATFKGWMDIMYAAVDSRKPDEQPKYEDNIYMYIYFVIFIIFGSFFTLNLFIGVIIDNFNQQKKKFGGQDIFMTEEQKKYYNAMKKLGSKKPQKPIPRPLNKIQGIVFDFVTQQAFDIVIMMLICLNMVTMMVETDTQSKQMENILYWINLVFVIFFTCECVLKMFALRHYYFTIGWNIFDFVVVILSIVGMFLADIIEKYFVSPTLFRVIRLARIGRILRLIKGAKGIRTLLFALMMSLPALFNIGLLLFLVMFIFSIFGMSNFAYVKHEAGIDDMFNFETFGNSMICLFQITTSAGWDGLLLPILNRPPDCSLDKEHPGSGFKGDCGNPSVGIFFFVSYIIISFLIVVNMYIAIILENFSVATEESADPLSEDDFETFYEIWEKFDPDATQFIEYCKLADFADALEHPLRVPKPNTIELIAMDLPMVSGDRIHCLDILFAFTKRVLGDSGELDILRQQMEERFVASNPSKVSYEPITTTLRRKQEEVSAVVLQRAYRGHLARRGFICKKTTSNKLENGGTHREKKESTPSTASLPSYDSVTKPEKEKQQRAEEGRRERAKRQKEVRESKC

The compound `CCCCC(C)=O` [2-hexanone] returned an IT0 in data set [1] (setting [2]) of 401.00 ± 33.20 s. In data set [1] (Table 3, 3.41 mg/mL), this compound came in with an IT50 of 74.42 ± 0.79 s.
Turning to `CCCCCCC(C)=O` [2-octanone], the IT0 in data set [1] (setting [2]) was 555.00 ± 75.00 s. Further, the IT50 in data set [1] (Table 3, 3.41 mg/mL) was 81.45 ± 1.58 s.
On to `CCCC(C)=O` [2-pentanone], for which the IT0 entry is reported as “greater than 24 h” in data set [1] (3.41 mg/mL) and “No measurable” in data set [1] (setting [2]). The same compound had an IT50 in data set [1] (Table 3, 3.41 mg/mL) of 390.60 ± 0.10 s.
With `CCCCC(=O)CC` [3-heptanone], the IT0 in data set [1] (setting [2]) is recorded as 258.00±11.47^b seconds. Moreover, in data set [1] (Table 3, 3.41 mg/mL), the IT50 was 40.82 ± 1.67 s.
In the same order, the values of `CCCCCC(=O)CC` [3-octanone] are 722.50 ± 95.66 s and 117.10 ± 0.53 s.
Regarding `CCC(=O)CC` [3-pentanone], the IT0 in data set [1] (setting [2]) was determined as 765.00 ± 86.60 s. For the same compound, in data set [1] (Table 3, 3.41 mg/mL), the IT50 was found to be 230.30 ± 1.29 s.
For `CCCC(=O)CCC` [4-heptanone], the IT0 in data set [1] (setting [2]) was 283.57±16.89^b seconds. The compound also gave an IT50 in data set [1] (Table 3, 3.41 mg/mL) of 45.24 ± 0.44 s.
As for `CCN(CC)CC(=O)Nc1c(C)cccc1C` [lidocaine], the “time to full recovery of locomotory pattern” value in the data set with wax moth larvae (WML) (0.81 mg injected, n = 5) is recorded as 6.42 h. For the same compound, the “effect of injection on large WML” value in the data set on wax moth larvae (WML) (1.63 mg injected, 12 cases) is “lethal effect”. Besides, the IC50 at hNav1.6 channels (hNav1.6 IC50, Phasic Experiment) was 299 µM; at hNav1.6 channels (hNav1.6 IC50, Tonic Experiment), 1240 µM; in data set [1] (Rattus norvegicus, read-out: IC50 from concentration-response curves of the IT0 values) it was 337 µg/mL (≈ 1440 µM). The “IT0 (time required for 100% inhibition of the nCAP)” value was 320.3 ± 14.96 s in data set [1] (1.41 mg/mL), 186.8 ± 8.07 s in data set [1] (2.28 mg/mL), 147.50 ± 9.96 s in data set [1] (3.41 mg/mL) and 101.3 ± 2.16 s in data set [1] (10 mg/mL). Further, the “IT50 (time to inhibit nCAP amplitude to 50% of control)” value in data set [1] (1.41 mg/mL) turned out to be 32.23 ± 3.16 s; in data set [1] (2.28 mg/mL), 30.9 ± 0.22 s; in data set [1] (3.41 mg/mL) it was 27.11 ± 3.16 s; in data set [1] (10 mg/mL), 12.0 ± 0.95 s. Further, in data set [1] (after elimination of nCAP, remained at this level for at least 24 h, n = 8), the “recovery of nCAP amplitude after wash with normal saline” value was 95.5%. In addition, the “effect on axonal membrane” value in the data set with rat sciatic nerve is “disrupts the axonal membrane”.
